{"source": "patent US6670368B1", "about": "“Pyrimidine compounds with pharmaceutical activity” (AstraZeneca AB, priority 1999, dated 2003)", "molecular_target": "T1, CDK4/Cyclin D1 (Homo sapiens, UniProt P11802)", "T1 construct": "made in house; host or cells: SF21 (Spodoptera frugiperda) insect cells, baculovirus co-infection, vector pVL1393", "T1 sequence (P11802 whole entry)": "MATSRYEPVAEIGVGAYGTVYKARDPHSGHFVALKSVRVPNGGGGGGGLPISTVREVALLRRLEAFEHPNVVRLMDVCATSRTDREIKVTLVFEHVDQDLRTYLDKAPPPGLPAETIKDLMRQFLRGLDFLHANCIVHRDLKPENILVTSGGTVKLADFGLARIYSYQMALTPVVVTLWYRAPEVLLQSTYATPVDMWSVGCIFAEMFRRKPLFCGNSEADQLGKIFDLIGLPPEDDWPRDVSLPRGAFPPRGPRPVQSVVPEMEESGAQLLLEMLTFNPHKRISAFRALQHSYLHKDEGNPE", "T1 sequence (P24385 whole entry partner)": "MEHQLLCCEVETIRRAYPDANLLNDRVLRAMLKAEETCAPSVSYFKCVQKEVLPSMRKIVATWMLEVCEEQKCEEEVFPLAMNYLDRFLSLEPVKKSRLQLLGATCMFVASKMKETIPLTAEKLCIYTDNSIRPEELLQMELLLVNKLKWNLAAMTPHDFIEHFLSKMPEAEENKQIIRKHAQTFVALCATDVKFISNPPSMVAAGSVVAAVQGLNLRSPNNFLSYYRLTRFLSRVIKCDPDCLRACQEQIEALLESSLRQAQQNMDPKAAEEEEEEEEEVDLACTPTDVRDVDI", "experiment": "in vitro kinase assay (Scintillation Proximity Assay), incorporation of [γ-33-P]-ATP into GST-Retinoblastoma", "assay_type": "biochemical", "settings": "CDK4/Cyclin D1 partially-purified enzyme, GST-Rb substrate, 0.2 μM ATP, room temperature 60 minutes; read-out: CDK4 inhibitory activity IC50", "protocol": "The compounds were tested in an in vitro kinase assay in 96 well format using Scintillation Proximity Assay (SPA-obtained from Amersham) for measuring incorporation of [γ-33-P]-Adenosine Triphosphate into a test substrate (GST-Retinoblastoma). In each well was placed the compound to be tested (diluted in DMSO and water to correct concentrations) and in control wells either p16 as an inhibitor control or DMSO as a positive control.\nApproximately 0.5 μl of CDK4/Cyclin D1 partially-purified enzyme (amount dependent on enzyme activity) diluted in 25 μl incubation buffer was added to each well then 20 μl of GST-Rb/ATP/ATP33 mixture (containing 0.5 μg GST-Rb and 0.2 μM ATP and 0.14 μCi [γ-33-P]-Adenosine Triphosphate), and the resulting mixture shaken gently, then incubated at room temperature for 60 minutes. To each well was then added 150 μL stop solution containing (0.8 mg/well of Protein A-PVT SPA bead (Amersham)), 20 pM/well of Anti-Glutathione Transferase, Rabbit IgG (obtained from Molecular Probes), 61 mM EDTA and 50 mM HEPES pH 7.5 containing 0.05% sodium azide.\nThe plates were sealed with Topseal-S plate sealers, left for two hours then spun at 2500 rpm, 1124×g., for 5 minutes. The plates were read on a Topcount for 30 seconds per well. […]", "note": "pIC50: −log10 of the molar value.", "data": [{"smiles": "Cc1ccc(C)c(Oc2cc(Nc3ccc(OCC(O)CN(C)C)cc3)ncn2)c1", "note": "(stereo not shown) [Example 6]", "values": [{"measurement": "pIC50", "value": 5.92}]}]}
